Assay results published in the supplement of paper PMC10307832.

Assays:
Assay in all cases: relative viability (nuclei count vs DMSO), 5 days (fraction); higher = more cells survive
[1] = compound: C1/C(=C\C2=CC=CS2)/C(=O)/C(=C/C3=CC=CS3)/C1 + NC(=O)Nc1cc(-c2cccc(F)c2)sc1C(=O)N[C@H]1CCCNC1 [AZD7762] (partner 0.2 µM)
Outline: (§1)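 Five library-drug doses in √10 steps were combined with a fixed anchor-drug dose, or a single drug was given alone, by pin tool to lung cancer cell lines in 1536-well plates the day after seeding. Nuclei were stained and counted after 5 days. Relative viability is the nuclei count in treated wells over that in vehicle wells, taken as the median of duplicate plates.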

[2] = compound: C1/C(=C\C2=CC=CS2)/C(=O)/C(=C/C3=CC=CS3)/C1 + O=C(CCCCCCC(=O)Nc1ccccc1)NO [Vorinostat] (partner 1 µM)
Outline: as §1

[3] = compound: C1/C(=C\C2=CC=CS2)/C(=O)/C(=C/C3=CC=CS3)/C1 + O=C(c1cc(Cc2n[nH]c(=O)c3ccccc23)ccc1F)N1CCN(C(=O)C2CC2)CC1 [Olaparib] (partner 8 µM)
Outline: as §1

TPCA-1 + Vorinostat = compound: C1=CC(=CC=C1C2=CC(=C(S2)NC(=O)N)C(=O)N)F [TPCA-1] + O=C(CCCCCCC(=O)Nc1ccccc1)NO [Vorinostat] (partner 1 µM)
Outline: as §1

Cell Line	relative viability ([1]; first compound 0.2 µM)	relative viability ([1]; first compound 0.6325 µM)	relative viability ([1]; first compound 2 µM)	relative viability ([1]; first compound 6.325 µM)	relative viability ([1]; first compound 20 µM)	relative viability ([2]; first compound 0.2 µM)	relative viability ([2]; first compound 0.6325 µM)	relative viability ([2]; first compound 2 µM)	relative viability ([2]; first compound 6.325 µM)	relative viability ([2]; first compound 20 µM)	relative viability ([3]; first compound 0.2 µM)	relative viability ([3]; first compound 0.6325 µM)	relative viability ([3]; first compound 2 µM)	relative viability ([3]; first compound 6.325 µM)	relative viability ([3]; first compound 20 µM)	relative viability (TPCA-1 + Vorinostat; first compound 0.04 µM)	relative viability (TPCA-1 + Vorinostat; first compound 0.1265 µM)	relative viability (TPCA-1 + Vorinostat; first compound 0.4 µM)	relative viability (TPCA-1 + Vorinostat; first compound 1.265 µM)	relative viability (TPCA-1 + Vorinostat; first compound 4 µM)
HOP-62	0.661	0.688	0.657	0.385	0.692	0.733	0.681	0.646	0.51	0.68	0.433	0.596	0.391	0.359	0.272	0.771	0.52	0.688	0.381	0.176
HCC-366	0.297	0.347	0.215	0.241	0.145	0.41	0.381	0.373	0.324	0.425	0.382	0.35	0.41	0.269	0.353		0.288	0.359	0.285	0.0534
NCI-H2347	0.788	0.696	0.866	0.65	0.792	0.627	0.561	0.601	0.61	0.667	0.623	0.581	0.593	0.521	0.63	0.8	0.551	0.803	0.527	0.516
NCI-H1648	0.778	0.622	0.571	0.601	0.511	0.435	0.408	0.603	0.366	0.297	0.855	0.81	1.03	0.792	0.814	0.4	0.486	0.528	0.704	0.631
LXF-289	1.07	1.13	1.16	1	1.07	0.821	0.829	0.772	0.732	0.724	1.06	1.07	1.06	0.936	1.02	0.786	0.819	0.762	0.764	0.42
NCI-H1793	0.488	0.482	0.596	0.328	0.199	1.02	0.753	0.892	0.654	0.734	0.904	0.931	0.978	0.782	0.893	0.619	0.61	0.967	0.674	0.236
LU99A	0.413	0.295	0.415	0.248	0.29	0.461	0.475	0.462	0.441	0.387	0.225	0.255	0.279	0.222	0.234	0.546	0.463	0.544	0.457	0.316
PC-14	0.433	0.357	0.352	0.306	0.432	0.855	0.809	0.843	0.614	0.687	0.289	0.28	0.239	0.192	0.31	0.838	0.802	0.802	0.639	0.448
